SMILES strings stand for the structures.

The conditions of test [1]: in mammals; cited from earlier work.
Test [2] relates to secretion of ACTH and β-endorphin. As to conditions: in mammals; cited from earlier work.
For test [3], the system named is gastric acid production. The conditions noted are these: cited from earlier work.
Test [4] can be described thus: lowering of blood pressure, in vivo testing. The conditions noted are these: synthetic peptide; extended time period.
In test [5] the test system is secretion of ACTH and β-endorphin. Put plainly: stimulation of ACTH and β-endorphin, background statements (in vitro and in vivo). As to conditions: synthetic peptide.
In test [6] the test system is cultured rat pituitary cells. Put plainly: secretion of ACTH and β-endorphin by cultured rat pituitary cells. The conditions noted are these: cultured rat pituitary cells; read-out: concentration giving half-maximal responses, secretion of ACTH and β-endorphin. It is filed as cell-based.

Turning to `CC[C@H](C)[C@H](NC(=O)[C@@H](NC(=O)[C@H](CC(=O)O)NC(=O)[C@H](CC(C)C)NC(=O)[C@H](CC(C)C)NC(=O)[C@H](CC(C)C)NC(=O)[C@H](CCCNC(=N)N)NC(=O)[C@H](CC(N)=O)NC(=O)[C@H](CC(N)=O)NC(=O)[C@H](C)NC(=O)[C@H](C)NC(=O)[C@H](CCC(N)=O)NC(=O)[C@H](CCC(N)=O)NC(=O)[C@H](CCCCN)NC(=O)[C@H](CCC(=O)O)NC(=O)[C@H](CCCCN)NC(=O)[C@H](CCC(=O)O)NC(=O)[C@H](CCC(N)=O)NC(=O)[C@H](CCCCN)NC(=O)[C@H](CCC(=O)O)NC(=O)[C@@H](NC(=O)[C@H](CCC(=O)O)NC(=O)[C@@H](NC(=O)[C@H](CCSC)NC(=O)[C@H](CCCCN)NC(=O)[C@H](CCCNC(=N)N)NC(=O)[C@H](CC(C)C)NC(=O)[C@H](CC(C)C)NC(=O)[C@H](CCC(=O)O)NC(=O)[C@H](CC(C)C)NC(=O)[C@H](CO)NC(=O)[C@H](CC(C)C)NC(=O)[C@H](CC(=O)O)NC(=O)[C@@H](NC(=O)[C@H](CO)NC(=O)[C@@H](NC(=O)[C@@H]1CCCN1C(=O)[C@@H]1CCCN1C(=O)CNC(=O)[C@@H]1CCC(=O)N1)[C@@H](C)CC)[C@@H](C)CC)[C@@H](C)CC)[C@@H](C)CC)[C@@H](C)O)C(N)=O` [Sauvagine], in test [1], the “biological activity in lowering blood pressure (reported)” value was “biological activity in lowering blood pressure in mammals”. In addition, the “biological activity in stimulating the secretion of ACTH and β-endorphin (reported)” value in test [2] is “stimulating the secretion of ACTH and β-endorphin”.

Consider `CC[C@H](C)[C@H](NC(=O)[C@H](CC(=O)O)NC(=O)[C@H](CC(C)C)NC(=O)[C@H](CC(C)C)NC(=O)[C@H](CCCCN)NC(=O)[C@H](CCCNC(=N)N)NC(=O)[C@H](CC(N)=O)NC(=O)[C@H](CO)NC(=O)[C@H](Cc1c[nH]cn1)NC(=O)[C@H](C)NC(=O)[C@H](CCC(N)=O)NC(=O)[C@H](CCC(N)=O)NC(=O)[C@H](C)NC(=O)[C@H](CC(C)C)NC(=O)[C@H](CCC(N)=O)NC(=O)[C@H](CC(=O)O)NC(=O)[C@H](C)NC(=O)[C@H](CCCCN)NC(=O)[C@@H](NC(=O)[C@H](CCSC)NC(=O)[C@H](CCC(=O)O)NC(=O)[C@H](CC(C)C)NC(=O)[C@@H](NC(=O)[C@H](CCC(=O)O)NC(=O)[C@H](CCCNC(=N)N)NC(=O)[C@H](CC(C)C)NC(=O)[C@H](CC(C)C)NC(=O)[C@H](Cc1c[nH]cn1)NC(=O)[C@H](Cc1ccccc1)NC(=O)[C@@H](NC(=O)[C@H](CC(C)C)NC(=O)[C@H](CC(=O)O)NC(=O)[C@H](CC(C)C)NC(=O)[C@H](CO)NC(=O)[C@@H](NC(=O)[C@@H]1CCCN1C(=O)[C@@H]1CCCN1C(=O)[C@H](CCC(=O)O)NC(=O)[C@H](CCC(N)=O)NC(=O)[C@@H](N)CO)[C@@H](C)CC)[C@@H](C)O)C(C)C)[C@@H](C)O)C(=O)N[C@@H](C)C(N)=O` [oCRF], for which, in test [3], the “gastric acid production” value was “inhibits gastric acid production”. Further, the “lowering of blood pressure” value in test [4] is recorded as “substantially lower blood pressure for an extended time period”. Further, the “biological activity in lowering blood pressure (reported)” value in test [1] is given as “biological activity in lowering blood pressure in mammals”. Besides, in test [5], the “stimulation of ACTH and β-endorphin activities” value was “stimulate ACTH and β-endorphin activities in vitro and in vivo”. For the same compound, in test [6], the EC50 was about 0.25 nM. Moreover, the “biological activity in stimulating the secretion of ACTH and β-endorphin (reported)” value in test [2] was “stimulating the secretion of ACTH and β-endorphin”.

For `CC[C@H](C)[C@H](NC(=O)[C@@H](NC(=O)[C@H](CCC(=O)O)NC(=O)[C@H](CCSC)NC(=O)[C@H](CC(C)C)NC(=O)[C@H](CCCCN)NC(=O)[C@H](CCCNC(=N)N)NC(=O)[C@H](CC(N)=O)NC(=O)[C@H](CO)NC(=O)[C@H](Cc1c[nH]cn1)NC(=O)[C@H](C)NC(=O)[C@H](CCC(N)=O)NC(=O)[C@H](CCC(N)=O)NC(=O)[C@H](C)NC(=O)[C@H](CC(C)C)NC(=O)[C@H](CCC(N)=O)NC(=O)[C@H](CCC(=O)O)NC(=O)[C@H](C)NC(=O)[C@H](CCCNC(=N)N)NC(=O)[C@H](C)NC(=O)[C@H](CCSC)NC(=O)[C@H](CCC(=O)O)NC(=O)[C@H](CC(C)C)NC(=O)[C@@H](NC(=O)[C@H](CCC(=O)O)NC(=O)[C@H](CCCNC(=N)N)NC(=O)[C@H](CC(C)C)NC(=O)[C@H](CC(C)C)NC(=O)[C@H](Cc1c[nH]cn1)NC(=O)[C@H](Cc1ccccc1)NC(=O)[C@@H](NC(=O)[C@H](CC(C)C)NC(=O)[C@H](CC(=O)O)NC(=O)[C@H](CC(C)C)NC(=O)[C@H](CO)NC(=O)[C@@H](NC(=O)[C@@H]1CCCN1C(=O)[C@@H]1CCCN1C(=O)[C@H](CCC(=O)O)NC(=O)[C@H](CCC(=O)O)NC(=O)[C@@H](N)CO)[C@@H](C)CC)[C@@H](C)O)C(C)C)[C@@H](C)CC)C(N)=O` [rCRF, reference compound], the “lowering of blood pressure” value in test [4] is “substantially lower blood pressure for an extended time period”. Further, the “stimulation of ACTH and β-endorphin activities” value in test [5] was “stimulate ACTH and β-endorphin activities in vitro and in vivo”.

Source of the values: patent US4594329A, “CRF analogs” (The Salk Institute for Biological Studies, priority 1984, dated 1986).
